23 compounds from US11807644B2 (PMV Pharmaceuticals, Inc., priority 2020, dated 2023) can be followed below.

SMILES strings stand for the structures.

The first assay addresses T1, recombinant His-tag Y220C p53 DBD protein (Homo sapiens, UniProt P04637, Y220C).
T1 construct: recombinant His-tag Y220C p53 DBD protein (amino acids #˜94-312)
The assay is described as follows: In vitro DNA binding activity assay (TR-FRET): binding of His-tag Y220C p53 DBD to biotin-labeled consensus DNA. The format is biochemical. The conditions noted are these: SC150 = concentration to increase DNA binding by […], His-tag Y220C p53 DBD, biotin-labeled consensus DNA.
On to `O=C(NCc1nc(-c2cc3c(NC4CCOCC4)cccc3n2CC(F)(F)F)no1)C1CC1` [Compound 159B, N-[(3-{4-[(oxan-4-yl)amino]-1-(2,2,2-trifluoroethyl)-1H-indol-2-yl}-1,2,4-oxadiazol-5-yl)methyl]cyclopropanecarboxamide], for which the “Y220C SC150 (μM)” value was “* (* = 0 μM ≤ SC150 < 0.1 μM)”.
Take `C[C@@H]1CN(C)CC[C@@H]1Nc1cccc2c1cc(-c1noc(CNC(=O)c3cnn(C(C)(C)C)c3)n1)n2CC(F)(F)F` [Compound 511B, 1-tert-butyl-N-{[3-(4-{[(3R,4S)-1,3-dimethylpiperidin-4-yl]amino}-1-(2,2,2-trifluoroethyl)-1H-indol-2-yl)-1,2,4-oxadiazol-5-yl]methyl}-1H-pyrazole-4-carboxamide]: the “Y220C SC150 (μM)” value is listed as “* (* = 0 μM ≤ SC150 < 0.1 μM)”.
Same read-out and setting: for `CN1CC[C@@H](Nc2cccc3c2cc(-c2noc(CNC(=O)c4csc(C(C)(C)O)c4)n2)n3CC(F)(F)F)[C@@H](F)C1` [Compound 425B, N-{[3-(4-{[(3S,4R)-3-fluoro-1-methylpiperidin-4-yl]amino}-1-(2,2,2-trifluoroethyl)-1H-indol-2-yl)-1,2,4-oxadiazol-5-yl]methyl}-5-(2-hydroxypropan-2-yl)thiophene-3-carboxamide] the value was “* (* = 0 μM ≤ SC150 < 0.1 μM)”; for `CN1CC[C@@H](Nc2cccc3c2cc(-c2noc(CNc4ccn[nH]4)n2)n3CC(F)(F)F)[C@@H](F)C1` [Compound 230B, N-[(3S,4R)-3-fluoro-1-methylpiperidin-4-yl]-2-(5-{[(1H-pyrazol-5-yl)amino]methyl}-1,2,4-oxadiazol-3-yl)-1-(2,2,2-trifluoroethyl)-1H-indol-4-amine], “* (* = 0 μM ≤ SC150 < 0.1 μM)”.
Still for that read-out and setting: under `CN1CCC(Nc2cccc3c2cc(-c2nnc(CNC(=O)[C@H]4C[C@@H]4c4ccccc4)s2)n3CC(F)(F)F)CC1` (racemic) [Compound 53B, (+/−)-(1S,2S)-N-[(5-{4-[(1-methylpiperidin-4-yl)amino]-1-(2,2,2-trifluoroethyl)-1H-indol-2-yl}-1,3,4-thiadiazol-2-yl)methyl]-2-phenylcyclopropane-1-carboxamide] stands “* (* = 0 μM ≤ SC150 < 0.1 μM)”; under `CN1CC[C@@H](Nc2cccc3c2cc(-c2noc(CNC(=O)c4ccn(C5CCC(F)(F)C5)c4)n2)n3CC(F)(F)F)[C@@H](F)C1` (stereo partly drawn) [Compound 347B, 1-(3,3-difluorocyclopentyl)-N-{[3-(4-{[(3S,4R)-3-fluoro-1-methylpiperidin-4-yl]amino}-1-(2,2,2-trifluoroethyl)-1H-indol-2-yl)-1,2,4-oxadiazol-5-yl]methyl)-1H-pyrrole-3-carboxamide], “* (* = 0 μM ≤ SC150 < 0.1 μM)”.
As to `COCCn1ccc(C(=O)NCc2nc(-c3cc4c(N[C@@H]5CCN(C)C[C@@H]5F)cccc4n3CC(F)(F)F)no2)c1` [Compound 198B, N-{[3-(4-{[(3S,4R)-3-fluoro-1-methylpiperidin-4-yl]amino}-1-(2,2,2-trifluoroethyl)-1H-indol-2-yl)-1,2,4-oxadiazol-5-yl]methyl}-1-(2-methoxyethyl)-1H-pyrrole-3-carboxamide], the “Y220C SC150 (μM)” value is listed as “* (* = 0 μM ≤ SC150 < 0.1 μM)”.
Same read-out and setting: under `CN1CCC(Nc2cccc3c2cc(-c2noc(CNC(=O)c4ccccc4)n2)n3CC(F)(F)F)CC1` [Compound 144B, N-[(3-{4-[(1-methylpiperidin-4-yl)amino]-1-(2,2,2-trifluoroethyl)-1H-indol-2-yl}-1,2,4-oxadiazol-5-yl)methyl]benzamide] stands “* (* = 0 μM ≤ SC150 < 0.1 μM)”; under `CO[C@@H]1CCN(c2nc(C(=O)NCc3nc(-c4cc5c(N[C@@H]6CCN(C)C[C@@H]6F)cccc5n4CC(F)(F)F)no3)cs2)C1` [Compound 522B, N-{[3-(4-{[(3S,4R)-3-fluoro-1-methylpiperidin-4-yl]amino}-1-(2,2,2-trifluoroethyl)-1H-indol-2-yl)-1,2,4-oxadiazol-5-yl]methyl}-2-[(3R)-3-methoxypyrrolidin-1-yl]-1,3-thiazole-4-carboxamide], “* (* = 0 μM ≤ SC150 < 0.1 μM)”.
Still for that read-out and setting: for `C[C@H]1CN(C)CC[C@H]1Nc1cccc2c1cc(-c1noc(CNC(=O)c3ccc(C(C)(C)O)s3)n1)n2CC(F)(F)F` [Compound 509B, N-{[3-(4-{[(3S,4R)-1,3-dimethylpiperidin-4-yl]amino}-1-(2,2,2-trifluoroethyl)-1H-indol-2-yl)-1,2,4-oxadiazol-5-yl]methyl}-5-(2-hydroxypropan-2-yl)thiophene-2-carboxamide] the value was “* (* = 0 μM ≤ SC150 < 0.1 μM)”.
For the compound `CC(C)Cn1cccc1C(=O)NCc1nc(-c2cc3c(N[C@@H]4CCN(C)C[C@@H]4F)cccc3n2CC(F)(F)F)no1` [Compound 535B, N-{[3-(4-{[(3S,4R)-3-fluoro-1-methylpiperidin-4-yl]amino}-1-(2,2,2-trifluoroethyl)-1H-indol-2-yl)-1,2,4-oxadiazol-5-yl]methyl}-1-(2-methylpropyl)-1H-pyrrole-2-carboxamide], the “Y220C SC150 (μM)” value is recorded as “* (* = 0 μM ≤ SC150 < 0.1 μM)”.
In the case of `CN1CC[C@@H](Nc2cccc3c2cc(-c2noc(CNC(=O)[C@@H]4C[C@H]4c4ccccc4)n2)n3CC(F)(F)F)[C@@H](F)C1` (racemic) [Compound 185B], the “Y220C SC150 (μM)” value is reported as “* (* = 0 μM ≤ SC150 < 0.1 μM)”.
The same measure, in the same setting: for `CO[C@@]1(C)CC[C@H](n2ccc(C(=O)NCc3nc(-c4cc5c(N[C@@H]6CCN(C)C[C@@H]6F)cccc5n4CC(F)(F)F)no3)c2)C1` (racemic) [Compound 388B] the value was “* (* = 0 μM ≤ SC150 < 0.1 μM)”; for `COCC1(n2ccc(C(=O)NCc3nc(-c4cc5c(N[C@@H]6CCN(C)C[C@@H]6F)cccc5n4CC(F)(F)F)no3)c2)CC1` [Compound 426B, N-{[3-(4-{[(3S,4R)-3-fluoro-1-methylpiperidin-4-yl]amino}-1-(2,2,2-trifluoroethyl)-1H-indol-2-yl)-1,2,4-oxadiazol-5-yl]methyl}-1-[1-(methoxymethyl)cyclopropyl]-1H-pyrrole-3-carboxamide], “* (* = 0 μM ≤ SC150 < 0.1 μM)”.
On the same count and under the same terms, for `CN1CC[C@H](F)[C@H](Nc2cccc3c2cc(-c2noc(CNC(=O)c4ccn(C(C)(C)C)c4)n2)n3CC(F)(F)F)C1` (racemic) [Compound 389B, rac-1-tert-butyl-N-{[3-(4-{[(3R,4S)-4-fluoro-1-methylpiperidin-3-yl]amino}-1-(2,2,2-trifluoroethyl)-1H-indol-2-yl)-1,2,4-oxadiazol-5-yl]methyl}-1H-pyrrole-3-carboxamide] the value was “* (* = 0 μM ≤ SC150 < 0.1 μM)”; for `CC(C)N1CC[C@@H](Nc2cccc3c2cc(-c2noc(CNC(=O)c4ccn(C(C)(C)C)c4)n2)n3CC(F)(F)F)[C@@H](F)C1` [Compound 317B, 1-tert-butyl-N-{[3-(4-{[(3S,4R)-3-fluoro-1-(propan-2-yl)piperidin-4-yl]amino}-1-(2,2,2-trifluoroethyl)-1H-indol-2-yl)-1,2,4-oxadiazol-5-yl]methyl}-1H-pyrrole-3-carboxamide], “* (* = 0 μM ≤ SC150 < 0.1 μM)”.
The same measure, in the same setting: under `CN1CC[C@@H](Nc2cccc3c2cc(-c2noc(CNC(=O)c4ccsc4)n2)n3CC(F)(F)F)[C@@H](F)C1` [Compound 189B, N-{[3-(4-{[(3S,4R)-3-fluoro-1-methylpiperidin-4-yl]amino}-1-(2,2,2-trifluoroethyl)-1H-indol-2-yl)-1,2,4-oxadiazol-5-yl]methyl}thiophene-3-carboxamide] stands “* (* = 0 μM ≤ SC150 < 0.1 μM)”; under `CN1CC[C@@H](Nc2cccc3c2cc(-c2nnc(CNC(=O)OCc4ccccc4)s2)n3CC(F)(F)F)[C@@H](F)C1` (racemic) [Compound 44B, (+/−)-benzyl N-{[5-(4-{[(3R,4S)-3-fluoro-1-methylpiperidin-4-yl]amino}-1-(2,2,2-trifluoroethyl)-1H-indol-2-yl)-1,3,4-thiadiazol-2-yl]methyl}carbamate], “* (* = 0 μM ≤ SC150 < 0.1 μM)”; under `CN1CC[C@@H](Nc2cccc3c2cc(-c2cc(CNC(=O)c4ccn(C(C)(C)C)c4)on2)n3CC(F)(F)F)[C@@H](F)C1` [Compound 553B, 1-tert-butyl-N-{[3-(4-{[(3S,4R)-3-fluoro-1-methylpiperidin-4-yl]amino}-1-(2,2,2-trifluoroethyl)-1H-indol-2-yl)-1,2-oxazol-5-yl]methyl}-1H-pyrrole-3-carboxamide], “* (* = 0 μM ≤ SC150 < 0.1 μM)”.
Consider `CN1CC[C@@H](Nc2cccc3c2cc(-c2noc(CNC(=O)c4cnn(C5CCC5)c4)n2)n3CC(F)(F)F)[C@@H](F)C1` [Compound 369B, 1-cyclobutyl-N-{[3-(4-{1[(3S,4R)-3-fluoro-1-methylpiperidin-4-yl]amino}-1-(2,2,2-trifluoroethyl)-1H-indol-2-yl)-1,2,4-oxadiazol-5-yl]methyl}-1H-pyrazole-4-carboxamide], for which the “Y220C SC150 (μM)” value is “* (* = 0 μM ≤ SC150 < 0.1 μM)”.
Regarding `CCOC1CCCC1n1ccc(C(=O)NCc2nc(-c3cc4c(N[C@@H]5CCN(C)C[C@@H]5F)cccc4n3CC(F)(F)F)no2)c1` (stereo in doubt) [Compound 376B, 1-[(1R,2R)-2-ethoxycyclopentyl]-N-{[3-(4-{[(3S,4R)-3-fluoro-1-methylpiperidin-4-yl]amino}-1-(2,2,2-trifluoroethyl)-1H-indol-2-yl)-1,2,4-oxadiazol-5-yl]methyl}-1H-pyrrole-3-carboxamide], the “Y220C SC150 (μM)” value was “* (* = 0 μM ≤ SC150 < 0.1 μM)”.

The assay is the same for the next values; noted with them: concentration to increase DNA binding by […], incubated at either 27° C. or 29° C. for 60 min.
For `O=C(O)c1cccc(-c2cc3c(NC4CCS(=O)(=O)CC4)cccc3n2CC(F)(F)F)c1` [Compound 20A, 3-{4-[(1,1-dioxo-1λ^6-thian-4-yl)amino]-1-(2,2,2-trifluoroethyl)-1H-indol-2-yl}benzoic acid], the “SC150 (μM)” value is given as “++++ (++++ = 10 μM ≤ SC150 < 35 μM)”.
The same measure, in the same setting: for `COCC(O)CN1CCC(Nc2cccc3c2cc(-c2ccc4c(C)[nH]nc4c2)n3CC(F)(F)F)CC1` (centres unmarked) [Compound 47A, 1-methoxy-3-(4-{[2-(3-methyl-2H-indazol-6-yl)-1-(2,2,2-trifluoroethyl)-1H-indol-4-yl]amino}piperidin-1-yl)propan-2-ol] the value was “+++ (+++ = 5 μM ≤ SC150 < 10 μM)”.
